Consider 16 molecules from patent US20070298025A1, “Pharmaceutical Compositions and Methods for Reducing Body Fat” (Obe Therapy Biotechnology S.A.S., priority 2004, published 2007).

One experiment has as its target pepsin (Homo sapiens, UniProt P0DJD8). The conditions noted are these: read-out: Ki (affinity for pepsin); cited from earlier work.
The target of experiment [1] is T1, enteropeptidase (Homo sapiens, UniProt P98073). In words: Trypsinogen activation assay. It counts as biochemical. Further details: purchased R&D Systems 1585-SE. The source says:
In vitro Testing: the Trypsinogen Activation Assay
Material: The following component, used in the present trypsinogen activation assay may be purchased as follows:
In the first step, the enteropeptidase cleaves the trypsinogen in its active form, trypsin. Trypsin, in the second step, cleaves the N-CBZ-Gly-Pro-Arg-p-nitroanilide (pNA) into N-CBZ-Gly-Pro-Arg and p-nitroanilide (pNA). The amount of pNA can be measured at 405 nm, and reflects the amount of trypsin cleaved and thus the inhibitory activity of the molecules tested on the enteropeptidase.
In the first step, the following mix was prepared (50 μl final) • recombinant human enteropeptidase: 1.5 nM final • sodium citrate: […] • candidate molecule or control: 1 μl • trypsinogen: 2.5 μM final
The mix was incubated at room temperature during 10 minutes and the reaction was stopped with 5 μl of HCl 0.4 M.
In the second step, the previous mix was then incubated with a 50 μl mix comprising 1 mM of N-CBZ-Gly-Pro-Arg-pNA, Tris Hcl pH 8.4 20 mM final and NaCl-150 mM final, at room temperature for 10 minutes. The absorbance of the resulting mix was read at 405 nm.
Results are expressed as the percentage of inhibition, which is the absorbance at 405 nm of the reaction in the presence of different concentrations of inhibitor as compared to the value obtained in the absence of inhibitor.

Experiment [2] concerns the target T1, enteropeptidase. In words: Test for enteropeptidase only (data not shown). It is filed as biochemical.
The test system of experiment [3] is people having Type II diabetes. In words: Treating Type II diabetes: blood glucose study. It counts as in vivo, human. To be noted: versus control group (placebo). As for the experimental part:
Type II diabetes is a disease in which the amount of insulin produced by the pancreas is inadequate to meet the body's needs and thus glucose, which is metabolized by insulin is not taken up normally from the blood into the body tissues. Therefore glucose in the blood rises. Type II diabetes is detected by a fasting glucose level of greater than 126 mg/dL measured on two occasions or one blood glucose level of greater than 200 mg/dL on one occasion or two random blood glucose levels of more than 200 mg/dL. Also a glucose tolerance test having a glucose level of more than 200 mg/dL 2 hours after drinking 75 grams of glucose also qualifies an individual as having Type II diabetes.
Two groups of 10 people are used in this study. The first given a treatment of ritonavir at 600 mg taken twice a day, while the other 10 people were given a placebo. The treatment continued for 2 months.
(§1) The study group is advised to follow their normal routine concerning their eating habits and exercise patterns, which is recorded 1 month prior to this study and throughout this study.
At the end of two months blood glucose levels and a glucose tolerance test are tested with all of the people in the study.
The same study in Example 6 is conducted with a larger group of people having Type II diabetes. Each of the treated groups 1 to 7 is given as amprenavir, atazanavir, indinavir, lopinavir, fosamprenavir, nelfinavir or saquinavir in the same amounts as set forth in Example 3. The control group is given a placebo. At the end of two months another fasting (9-12 hours) lipid profile is taken.

For experiment [4], the system named is persons having hyperlipidemia. The experiment can be described thus: Treating hyperlipidemia: fasting lipid profile study. It counts as in vivo, human. To be noted: fasting (9-12 hours), versus control group. As for the experimental part:
Hyperlipidemia is an elevation of lipids in the bloodstream. These lipids include, for example, cholesterol and triglycerides. General hyperlipidemia is determined by the results of a lipid profile. The lipid profile includes LDL, HDL, triglycerides and total cholesterol measurements. A group of persons having hyperlipidemia with a total cholesterol level greater than 240 mg/dl, an HDL (high density lipid) of below 40 mg/ml, a triglyceride level of greater than 200 mg/dl and an LDL (low density lipid) level of over 160 mg/ml, after a 9 to 12 hours of fasting, are chosen for this study.
10 people are given a treatment of ritonavir at 600 mg taken twice a day. The other 10 people are given a placebo. The treatment continued for 2 months.
as §1
At the end of two months another fasting (9-12 hours) lipid profile is taken.
The same study in Example 8 is conducted with a larger group of people having hyperlipidemia. Each of the treated groups 1 to 7 is given as amprenavir, atazanavir, indinavir, lopinavir, fosamprenavir, nelfinavir or saquinavir in the same amounts as set forth in Example 3. The control group is given a placebo. At the end of two months another fasting (9-12 hours) lipid profile is taken.

Experiment [5] deals with Recombinant human enteropeptidase (human, UniProt P98073 41-1019, limits assumed). In words: cell-based or functional assay.
Setting [6] is: Example 7, groups 1 to 7, two months.
Setting [7] is: Example 9, groups 1 to 7, two months.

Structures can show the parent of a compound that is named as a salt. Non-standard residues stand in square brackets, D forms with d. Residues, ends and D or L forms follow the SMILES beside them. *: point of attachment. Boc = CC(C)(C)OC(=O)*; CH2Cl = ClC*

T1 sequence (P98073 whole entry): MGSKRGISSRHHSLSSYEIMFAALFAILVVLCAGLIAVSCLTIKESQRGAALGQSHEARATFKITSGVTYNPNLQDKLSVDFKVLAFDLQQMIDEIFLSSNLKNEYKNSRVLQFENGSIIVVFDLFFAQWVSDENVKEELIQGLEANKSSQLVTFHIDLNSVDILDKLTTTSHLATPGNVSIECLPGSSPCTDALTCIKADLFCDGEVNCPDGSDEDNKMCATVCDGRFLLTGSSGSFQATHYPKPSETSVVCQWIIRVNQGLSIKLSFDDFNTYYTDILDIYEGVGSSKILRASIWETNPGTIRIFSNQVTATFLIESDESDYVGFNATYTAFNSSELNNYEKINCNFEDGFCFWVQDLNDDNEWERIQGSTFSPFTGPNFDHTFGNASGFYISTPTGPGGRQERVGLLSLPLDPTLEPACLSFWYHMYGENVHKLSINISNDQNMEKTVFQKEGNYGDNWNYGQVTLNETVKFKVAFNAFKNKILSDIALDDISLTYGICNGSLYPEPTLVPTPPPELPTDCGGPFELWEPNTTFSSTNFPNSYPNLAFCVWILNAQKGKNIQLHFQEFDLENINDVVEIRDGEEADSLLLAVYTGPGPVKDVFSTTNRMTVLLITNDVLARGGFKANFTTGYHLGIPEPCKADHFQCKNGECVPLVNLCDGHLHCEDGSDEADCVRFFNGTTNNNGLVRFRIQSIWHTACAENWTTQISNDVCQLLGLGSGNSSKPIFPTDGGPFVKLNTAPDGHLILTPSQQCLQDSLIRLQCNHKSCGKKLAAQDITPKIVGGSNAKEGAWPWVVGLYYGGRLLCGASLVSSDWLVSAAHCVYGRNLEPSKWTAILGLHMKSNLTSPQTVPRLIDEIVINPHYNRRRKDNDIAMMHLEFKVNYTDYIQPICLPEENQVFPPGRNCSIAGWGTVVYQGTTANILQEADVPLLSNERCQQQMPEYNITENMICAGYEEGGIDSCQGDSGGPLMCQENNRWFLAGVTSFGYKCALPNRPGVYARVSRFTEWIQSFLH
Recombinant human enteropeptidase, sequence (P98073 41-1019 E134Q/P732S limits assumed): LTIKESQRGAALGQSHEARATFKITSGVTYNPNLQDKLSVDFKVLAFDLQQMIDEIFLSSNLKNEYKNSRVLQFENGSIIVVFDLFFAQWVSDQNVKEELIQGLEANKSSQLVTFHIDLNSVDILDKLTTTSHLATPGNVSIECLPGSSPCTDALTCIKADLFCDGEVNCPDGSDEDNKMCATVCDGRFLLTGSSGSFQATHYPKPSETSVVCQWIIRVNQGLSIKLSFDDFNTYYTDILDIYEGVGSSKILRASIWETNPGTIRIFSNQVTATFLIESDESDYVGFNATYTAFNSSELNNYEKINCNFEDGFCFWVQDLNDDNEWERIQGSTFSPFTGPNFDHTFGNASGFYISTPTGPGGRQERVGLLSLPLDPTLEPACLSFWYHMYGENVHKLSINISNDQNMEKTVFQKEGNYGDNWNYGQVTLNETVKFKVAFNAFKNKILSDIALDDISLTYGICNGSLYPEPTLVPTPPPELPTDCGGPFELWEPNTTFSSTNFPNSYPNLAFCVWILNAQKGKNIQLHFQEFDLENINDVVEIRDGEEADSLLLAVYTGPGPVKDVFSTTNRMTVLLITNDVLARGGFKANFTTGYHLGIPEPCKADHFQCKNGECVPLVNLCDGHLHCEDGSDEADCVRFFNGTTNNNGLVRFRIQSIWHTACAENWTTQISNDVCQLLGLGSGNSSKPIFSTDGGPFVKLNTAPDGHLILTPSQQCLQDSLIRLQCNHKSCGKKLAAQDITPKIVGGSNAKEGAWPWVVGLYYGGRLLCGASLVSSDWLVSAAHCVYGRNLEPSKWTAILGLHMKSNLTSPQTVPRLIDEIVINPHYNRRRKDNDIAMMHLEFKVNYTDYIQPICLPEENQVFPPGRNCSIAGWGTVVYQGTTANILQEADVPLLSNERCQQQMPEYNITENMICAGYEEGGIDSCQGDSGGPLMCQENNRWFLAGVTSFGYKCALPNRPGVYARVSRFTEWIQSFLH
pepsin, sequence (P0DJD8 63-388): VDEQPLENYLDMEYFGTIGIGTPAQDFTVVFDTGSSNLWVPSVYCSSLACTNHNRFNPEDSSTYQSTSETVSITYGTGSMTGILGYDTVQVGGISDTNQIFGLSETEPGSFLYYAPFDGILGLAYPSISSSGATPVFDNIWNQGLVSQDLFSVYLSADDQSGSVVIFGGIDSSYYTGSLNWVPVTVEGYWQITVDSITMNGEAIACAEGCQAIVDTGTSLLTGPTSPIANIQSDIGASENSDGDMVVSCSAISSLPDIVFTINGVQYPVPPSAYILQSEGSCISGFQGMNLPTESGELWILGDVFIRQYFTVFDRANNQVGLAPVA

Broadly, the Ki is the equilibrium dissociation constant of an inhibitor or competing ligand from its target. Take `CC(C)[C@H](NC(=O)[C@H](Cc1ccccc1)C[C@H](O)[C@H](Cc1ccccc1)NC(=O)OC(C)(C)C)C(=O)N[C@@H](Cc1ccccc1)C(=O)N1CCOCC1` [CGP 53437]: the inhibition constant Ki on pepsin is 8 nM.
What is called IC50 is the concentration that gives 50% inhibition. Low values mean inhibition by little substance, high ones a need for much substance. The molecule `CC(=O)N[C@@H](CC(C)C)C(=O)N[C@H](C(=O)N[C@H](C=O)CCCCN)C(C)C` [AC-Leu-Val-Lys-Aldhehyde] (Ac-Leu-Val-Lys-aldehyde) gave an IC50 against enteropeptidase [1] (trypsinogen activation assay, FIG. 6, enteropeptidase 1.5 nM, trypsinogen 2.5 μM) of around 3000 nM.
Regarding Z-Asp-Glu-Val-Asp-chloromethylketone, the “IC50 when tested for enteropeptidase only, compared with the ones reported in FIG. 6” value in the experiment with enteropeptidase [2] was “higher”. Besides, the inhibition entry with enteropeptidase [1] (tested at 50 μm) is on record as “no inhibition”.
In the case of `CC(C)(C)NC(=O)[C@@H]1CN(Cc2cccnc2)CCN1C[C@@H](O)C[C@@H](Cc1ccccc1)C(=O)N[C@H]1c2ccccc2C[C@H]1O` [indinavir], in experiment [3] (setting [6]), the “levels of blood glucose” value is given as “significantly reduced”. In experiment [4] (setting [7]), the “levels of HDL” value was “higher”, the “levels of LDL” value was “significantly reduced”, the levels of cholesterol entry is reported as “significantly reduced” and the levels of triglycerides entry is “significantly reduced”.
For AC-Leu-Val-Lys-Aldhehyde (peptide), the IC50 in the trypsinogen activation assay (percentage of inhibition, absorbance of pNA at 405 nM) in experiment [5] came out at 3 µM.
For the molecule `N=C(N)NCCC[C@H](NC(=O)[C@@H]1CCCN1C(=O)[C@H](N)Cc1ccc(O)cc1)C(=O)CCl` [H-D-Tyr-Pro-Arg-chloromethylketone trifluororoacetate salt] (H-[dY]-Pro-Arg-CH2Cl), at enteropeptidase [2], the “IC50 when tested for enteropeptidase only, compared with the ones reported in FIG. 6” value is on record as “higher”.
As to `CC(C)c1nc(CN(C)C(=O)N[C@H](C(=O)N[C@@H](Cc2ccccc2)C[C@H](O)[C@H](Cc2ccccc2)NC(=O)OCc2cncs2)C(C)C)cs1` [ritonavir], the “levels of blood glucose” value in experiment [3] (600 mg twice a day, 2 months) is on record as “significantly reduced”. In experiment [4] (600 mg twice a day, 2 months), the “levels of HDL” value is given as “higher”, the “levels of LDL” value is on record as “significantly reduced”, the “levels of total cholesterol” value is recorded as “significantly reduced” and the levels of triglycerides result is given as “significantly reduced”.
In the case of `Cc1c(O)cccc1C(=O)N[C@@H](CSc1ccccc1)[C@H](O)CN1C[C@H]2CCCC[C@H]2C[C@H]1C(=O)NC(C)(C)C` [nelfinavir], in experiment [3] (setting [6]), the “levels of blood glucose” value is “significantly reduced”. Besides, in experiment [4] (setting [7]), the “levels of HDL” value is listed as “higher”, the “levels of LDL” value is given as “significantly reduced”, the levels of cholesterol entry is on record as “significantly reduced” and the levels of triglycerides result is reported as “significantly reduced”.
For `COC(=O)N[C@H](C(=O)N[C@@H](Cc1ccccc1)[C@@H](O)CN(Cc1ccc(-c2ccccn2)cc1)NC(=O)[C@@H](NC(=O)OC)C(C)(C)C)C(C)(C)C` [atazanavir], the “levels of blood glucose” value in experiment [3] (setting [6]) was “significantly reduced”. In addition, in experiment [4] (setting [7]), the “levels of HDL” value was “higher”, the “levels of LDL” value is “significantly reduced”, the levels of cholesterol result is reported as “significantly reduced” and the levels of triglycerides result is “significantly reduced”.
For “BOC-Ala-Glu-Val-Asp-Aldehyde (Boc-AEVD-aldehyde; SMILES CC(C)[C@H](NC(=O)[C@H](CCC(=O)O)NC(=O)[C@H](C)NC(=O)OC(C)(C)C)C(=O)N[C@H](C=O)CC(=O)O) [negative control, Bachem N-1755]”, the inhibition result with enteropeptidase [1] (tested at 10 μm) was “no inhibition”.
As for `CC(C)(C)NC(=O)[C@@H]1C[C@@H]2CCCC[C@@H]2CN1C[C@@H](O)[C@H](Cc1ccccc1)NC(=O)[C@H](CC(N)=O)NC(=O)c1ccc2ccccc2n1` [saquinavir], the “levels of blood glucose” value in experiment [3] (setting [6]) is listed as “significantly reduced”. Also, in experiment [4] (setting [7]), the “levels of HDL” value is recorded as “higher”, the “levels of LDL” value is given as “significantly reduced”, the levels of cholesterol result is “significantly reduced” and the levels of triglycerides result is “significantly reduced”.
With `CC(C)CN(C[C@@H](O)[C@H](Cc1ccccc1)NC(=O)O[C@H]1CCOC1)S(=O)(=O)c1ccc(N)cc1` [amprenavir], the “levels of blood glucose” value in experiment [3] (setting [6]) was “significantly reduced”. Besides, in experiment [4] (setting [7]), the “levels of HDL” value is “higher”, the “levels of LDL” value is recorded as “significantly reduced”, the levels of cholesterol entry was “significantly reduced” and the levels of triglycerides result is listed as “significantly reduced”.
With `CC(C)CN(C[C@@H](OP(=O)(O)O)[C@H](Cc1ccccc1)NC(=O)O[C@H]1CCOC1)S(=O)(=O)c1ccc(N)cc1` [fosamprenavir], the “levels of blood glucose” value in experiment [3] (setting [6]) was “significantly reduced”. Further, in experiment [4] (setting [7]), the “levels of HDL” value is “higher”, the “levels of LDL” value was “significantly reduced”, the levels of cholesterol entry is listed as “significantly reduced” and the levels of triglycerides entry was “significantly reduced”.
Turning to `Cc1cccc(C)c1OCC(=O)N[C@@H](Cc1ccccc1)[C@@H](O)C[C@H](Cc1ccccc1)NC(=O)[C@H](C(C)C)N1CCCNC1=O` [lopinavir], the “levels of blood glucose” value in experiment [3] (setting [6]) was “significantly reduced”. In experiment [4] (setting [7]), the “levels of HDL” value is reported as “higher”, the “levels of LDL” value is reported as “significantly reduced”, the levels of cholesterol entry was “significantly reduced” and the levels of triglycerides entry is reported as “significantly reduced”.

B1: H-D-Tyr-Pro-Arg-chloromethylketone trifluororoacetate salt (peptide)
peptide: H-[dY]-Pro-Arg-CH2Cl
modifications: also: trifluoroacetate salt
On to B1, for which, in experiment [5], the “IC50 in the trypsinogen activation assay (percentage of inhibition, absorbance of pNA at 405 nM)” value was around 35 nM.

B2: 1,5-Dansyl-Glu-Gly-Arg-chloromethylketone dihydrochloride (peptide)
peptide: {1,5‑dansyl}-Glu-Gly-Arg-CH2Cl
modifications: also: dihydrochloride salt
For the molecule B2, the “IC50 in the trypsinogen activation assay (percentage of inhibition, absorbance of pNA at 405 nM)” value in experiment [5] was around 24.7 nM.
